Measured values reported in patent US20250251402A1, “METHODS OF DETECTING MOLECULAR AGGREGATES USING IMAGE CORRELATION SPECTROSCOPY (ICS)” (The General Hospital Corporation, priority 2022, published 2025).

Tests used:
Format in all cases: cell-based
WPMY-1 cells = experiment: Autocorrelation (ICS DA) of 53BP1 in phenotypic screen images, WPMY-1
Description: (§1) Images from the original study (8) were accessed through the Image Data Resource (32) API on the Open Microscopy environment. Nuclei were segmented using StarDist (33) on the BFP channel image. Segmented nuclei were then analyzed by image correlation spectroscopy autocorrelation (34) in the TP53BP1 channel and the average degree of aggregation (DA) was calculated.
(§2) We accessed the original phenotypic screen (8) images through the IDR API on the Open Microscopy server. The screen contained three different cell lines that had endogenous TP53BP1 labeled GFP as a marker protein. We first identified all the images from these three cell lines (>60,000 images in total), then segmented the nuclei of each cell using the BFP channel image. Segmented nuclear regions were then transferred to the TP53BP1 image and image autocorrelation was performed on each nucleus. The degree of aggregation (DA, a measurement of fluorophore clustering) for each nucleus was then averaged to produce an overall image 53BP1 DA that corresponded to the compound and compound concentration. The dataset contained repeats of four different doses for each compound. The activity of each compound in each cell line was then determined by fitting a linear regression to the DA as a function of compound concentration. The slope and significance versus the null hypothesis (slope equal to zero) of DA vs. concentration was then determined.
(§3) 53BP1 DA is a measure of protein labeled fluorophore clustering within the nucleus. […] Increases in 53BP1 recruitment can occur either through induction of DNA damage or altered repair pathways, such as shifting the response from homologous recombination to non-homologous end joining.

SKOV3 cells = experiment: γH2AX immunofluorescence in SKOV3 cells (intensity, Imaris Spots, ICS TNoP and DA)
Description: (§4) For the ICS analysis, nuclei were segmented from the DAPI channel using a watershed approach in MATLAB. Briefly, we applied a difference of gaussians for size-based feature extraction of nuclei in the image (upper gaussian σ=100, lower gaussian σ=2-5 dependent on cell size). This feature enhanced image was then binarized to create a primary mask (using the function imbinarize) and connected components under 100 pixels were removed (using the function bwareaopen). We then created a distance transform of the resulting binary image (using the function bwdist). Seed points were determined by finding the regional maximum of a gaussian filtered image, with a gaussian σ of appropriate size for seed point detection (σ×7 or 8 dependent on cell size). The seed points were applied to the distance transform, and we applied the watershed function to the resulting image to obtain masks for each nucleus (extracted using the function regionprops).
(§5) Using the nucleus masks, we performed ICS analysis on the antibody-stained channel, within size limitations for a nucleus (objects >400 and <2400 pixels). Intensity, DA and TNOP were calculated for each cell. In this analysis, since the ROI is defined by the nucleus mask (segmented from nuclear signal using DAPI staining), TNoP represents the total number of particles per nucleus, with the image area being the number of pixels in each nuclear mask.
(§6) Measurements across experiments were normalized by the control in each dataset. […] Data were plotted in Prism and statistical analysis was performed in Excel.
(§7) Imaris spots analysis were performed with Imaris 9.8 with background subtraction, using a spot size of 1 μm that was measured from the smallest distinguishable foci from the control image. For images with multiple nuclei, ImarisCell was used with the detection type “cell and vesicles”, where the nucleus in the DAPI channel was modelled as the “cell” and antibody-labeled foci were modelled as the “vesicles”. This enabled us to count the number of foci per nucleus for multiple cells. In each dataset, the automatic “quality” threshold was determined from the control image and the same threshold was used for every image in the dataset to be able to compare the outputs across datasets. Similar to the ICS analysis, only cells with an area between 400-2400 voxels were included for analysis.
(§8) All chemicals were purchased from Sigma unless otherwise noted. All drugs were purchased from Selleck Chemicals. Cells were cultured in media supplemented with 10% fetal bovine serum and 1% penicillin/streptomycin. OVCA429 were originally obtained from Dr. Michael Birrer and cultured in DMEM. SKOV3 was obtained from ATCC and cultured in RPMI. For MMS treatment, cells were incubated for 6 hours before fixation with 4% formaldehyde, whereas for treatment with PARP inhibitors, cells were incubated for 24 hours before fixation.
(§9) Cells were plated in 8-well slides (Fisher) to achieve 50% confluence overnight. Cells were then treated and fixed with 4% formaldehyde in PBS at room temperature for 10 minutes. Antibody staining was performed according to the manufacturers protocol (Cell Signaling Technologies or Abcam). Primary antibodies used were γH2AX (CST, #2577), RPA1 (CST, #2267) and RAD51 (Abcam, 63801), with Anti-rabbit IgG Fab2 Alexa Fluor 647 (CST, #4414) as the secondary fluorescent antibody. After antibody labeling, prolong gold with DAPI (CST) was added and samples were stored for up to 1 week prior to imaging. Confocal imaging was performed on an Olympus FV1000 multiphoton/confocal microscope using an Olympus XLUMPlanFL N 20× objective, NA 1.00 with chromatic correction, and 3× digital zoom. DAPI was excited with a 405 nm laser, while Alexa Fluor 647 was excited with a 635 nm laser. A multiband (DM 405/488/561/633 nm) dichroic mirror was used to direct the excitation laser and collect emission. […]

OVCA429 cells = experiment: γH2AX immunofluorescence in OVCA429 cells (intensity, Imaris Spots, ICS TNoP and DA)
Description: as §4, §5, §6, §7, §8, §9

HCC1937 cells = experiment: 53BP1-mApple condensate anisotropy (homo-FRET) and intensity in HCC1937 cells
Description: All fluorescence imaging was performed on an Olympus FV1000 multiphoton/confocal microscope. Anisotropy measurements were performed through custom modifications to the imaging system as previously described (30). Briefly, linear polarization of two photon excitation light at 910 nm (MaiTai femtosecond laser, Spectra Physics) was controlled by a glan-thompson prism and half wave plate. […] was collected in orthogonal orientations through two detectors, parallel and perpendicular to excitation polarization, through a polarizing beam splitter that replaced a dichroic mirror in the emission filter cube. The alignment and detector gain and noise were validated each imaging session through measurements of a standard slide. Images were taken with an Olympus 25× XLPlan N objective, NA 1.05, and 3× digital zoom. Confocal imaging was performed with an Olympus XLUMPlanFL N 20× objective, NA 1.00 with chromatic correction, and 3× digital zoom.
Cells were grown on 12 mm round, uncoated, sterilized glass coverslips in 24-well plates for 24 hours. Cells were treated with PARPi and 100 μM TMZ for 1 hour or 10 nM GMX1778 overnight followed by 100 μM TMZ for 1 hour. TMZ was added to stimulate new DNA damage induced condensates in the presence of PARPi or NAD″ depletion. Cells were then transferred to the microscope for anisotropy imaging. Images were analyzed in MATLAB. Nuclei were segmented through intensity thresholding and condensates were segmented through further intensity thresholding with a higher threshold. Values of segmented nuclei and condensates were determined through the regionprops function. Segmentation was corrected through area restrictions to ensure that regions of interest were isolated condensates. The thresholding parameters were consistent throughout experiments. The average intensity and anisotropy of each segmented nuclei or condensate was then calculated. Data were plotted in Prism and analysis performed in Prism or Excel.

HepG2 cells = experiment: Autocorrelation (ICS DA) of 53BP1 in phenotypic screen images, HepG2
Description: as §1, §2, §3

A549 cells = experiment: Autocorrelation (ICS DA) of 53BP1 in phenotypic screen images, A549
Description: as §1, §2, §3

53BP1 = experiment: Autocorrelation (ICS DA) of 53BP1 in phenotypic screen images, cell line not specified; conditions: at least one cell line of A549, WPMY-1, HepG2
Description: as §1, with “calculated. […] Active compounds were defined as having significant (p<0.05) non-zero linear regressions, either negative or positive. The activity score was determine by summing the direction of each active compound and dividing by the total number of compounds in the MoA.” for “calculated.”
as §2, with “determined. Active compounds were defined as those having a significant (p<0.05) slope of DA vs. concentration.” for “determined.”
53BP1 DA is a measure of protein labeled fluorophore clustering within the nucleus. […] Yet, given the highly characterized role of 53BP1 in the DNA damage response (9), recruitment to DNA damage response foci is likely the most prominent driver of measured activity.

HT1080 cells = experiment: γH2AX immunofluorescence ICS DA and nuclear intensity in HT1080 cells; conditions: HT1080, 10 nM GMX1778 for 24 hours vs control
Description: Cells were plated in 8-well […] slides (Thermo or Ibidi) to achieve 50% confluence overnight. Cells were then treated and fixed with 4% paraformaldehyde in PBS at room temperature for 10 minutes. Antibody staining was performed according to the manufacturers protocol. Following fluorescent secondary antibody labeling, prolong gold with DAPI (Cell Signaling Technologies) was added and samples were stored for up to 1 week prior to imaging.
ICS analysis was performed in MATLAB as previously described (41). Briefly, nuclei were segmented from the DAPI channel with the MATLAB function, imbinarize, converting the greyscale image to a binary dependent on an automatically defined threshold. The MATLAB function, regionprops, was used to identify single nuclei as objects. Each nucleus was used as a mask to perform ICS analysis on the antibody-stained channel, within size limitations for a nucleus (objects >400 and <3000 pixels). To ensure the analysis of antibody stained nuclei, nuclei under an average intensity of 200 au after background subtraction were excluded. The spatial autocorrelation functions were calculated using Fourier methods, then fit to a 2D Gaussian using a nonlinear least-squares algorithm (41). Using the outputs of the fitting, the mean number of independent emitting fluorescent entities per focal spot area and subsequently the DA were determined (59). DA measurements across experiments were normalized by the control in each dataset. […] Any DA values exceeding 3 standard deviations from the mean were defined as incorrectly segmented and removed. Data were plotted in Prism and analysis performed in Prism or Excel.

[1] = HCC1937, 10 nM GMX1778 overnight then 100 μM TMZ 1 hour

Compound: Cc1cc(C)c(C)c(S(=O)(=O)Nc2ccc(N3CC[C@H](C(=O)O)C3)c3ccccc23)c1C [RA839]
- 53BP1 DA vs. concentration regression (53BP1 recruitment) (WPMY-1 cells): two of the strongest 53BP1 recruitment-reducing compounds

Compound: O=C(c1cc(Cc2n[nH]c(=O)c3ccccc23)ccc1F)N1CCN(C(=O)C2CC2)CC1 [olaparib]
- ICS TNoP of γH2AX, dose dependence (SKOV3 cells; SKOV3): slight TNOP dose dependence
- Number of γH2AX spots determined by Imaris (SKOV3 cells; SKOV3, 100 μM olaparib vs 10 μM dose): not significant compared to the 10 μM dose
- ICS DA of γH2AX, dose dependence (OVCA429 cells; OVCA429): full dose dependent increases in γH2AX clustering
- Imaris Spots analysis of γH2AX, dose dependence (OVCA429 cells; OVCA429): able to capture olaparib dose dependence
- γH2AX intensity, dose dependence (OVCA429 cells; OVCA429, PARP inhibitors): did not show a dose dependence
- 53BP1-mApple condensate anisotropy vs control (HCC1937 cells; HCC1937, 1 μM PARPi and 100 μM TMZ for 1 hour): significantly lower condensate anisotropy compared to control

Compound: COc1ccccc1S(=O)(=O)Nc1ccc2c(c1)CN(C)C(=O)N2 [PFI-1]
- 53BP1 DA vs. concentration regression (53BP1 recruitment) (HepG2 cells): strong positive activity
- 53BP1 DA vs. concentration regression (53BP1 recruitment) (A549 cells): strong positive activity

Compound: Cc1nc2c(O)cccc2c(=O)[nH]1 [NU 1025]
- 53BP1 DA vs. concentration regression (53BP1 recruitment) (53BP1): increased 53BP1 recruitment

Compound: N#CN=C(NCCCCCCOc1ccc(Cl)cc1)Nc1ccncc1 [GMX1778]
- 53BP1-mApple condensate anisotropy vs control (HCC1937 cells; [1]): significantly lowered condensate anisotropy
- 53BP1-mApple condensate intensity vs control (HCC1937 cells; [1]): without impacting condensate intensity
- γH2AX ICS DA (HT1080 cells): significantly increased
- γH2AX levels (nuclear intensity) (HT1080 cells): no significant difference

Compound: Cc1c(-c2cnccn2)ssc1=S [oltipraz]
- 53BP1 DA vs. concentration regression (53BP1 recruitment) (WPMY-1 cells): two of the strongest 53BP1 recruitment-reducing compounds

Compound: COc1ccc(C(=O)C2CCN(CC(=O)N(Cc3nc4c(c(=O)[nH]3)COCC4)CC3CC3)CC2)cc1 [NVP-TNKS656]
- 53BP1 DA vs. concentration regression (53BP1 recruitment) (53BP1): increased 53BP1 recruitment

Compound: S=P(N1CC1)(N1CC1)N1CC1 [thiotepa]
- 53BP1 DA vs. concentration regression (53BP1 recruitment) (WPMY-1 cells): strong inducers of 53BP1 recruitment

Compound: Cc1nc(NC(=O)N2CCC[C@H]2C(N)=O)sc1-c1csc(C(C)(C)C)n1 [A66]
- 53BP1 DA vs. concentration regression (53BP1 recruitment) (WPMY-1 cells): strong inducers of 53BP1 recruitment

Compound: NC(=O)c1cccc(-c2cc(Nc3ccc(OC(F)(F)F)cc3)ncn2)c1 [GNF 2]
- 53BP1 DA vs. concentration regression (53BP1 recruitment) (HepG2 cells): reduced 53BP1 recruitment
- 53BP1 DA vs. concentration regression (53BP1 recruitment) (A549 cells): reduced 53BP1 recruitment

Compound: O=c1[nH]cnc2ccccc12 [4-HQN]
- 53BP1 DA vs. concentration regression (53BP1 recruitment) (53BP1): increased 53BP1 recruitment

Compound: NC(=O)c1cccc(N)c1 [3-aminobenzamide]
- 53BP1 DA vs. concentration regression (53BP1 recruitment) (HepG2 cells): reduced 53BP1 recruitment
- 53BP1 DA vs. concentration regression (53BP1 recruitment) (WPMY-1 cells): reduced 53BP1 recruitment
- 53BP1 DA vs. concentration regression (53BP1 recruitment) (A549 cells): reduced 53BP1 recruitment

Compound: O=C(CCCCCCC(=O)Nc1ccccc1)NO [SAHA]
- 53BP1 DA vs. concentration regression (53BP1 recruitment) (WPMY-1 cells): strong inducers of 53BP1 recruitment

Compound: CCCOc1ccc(CCc2nc3cc(-c4c(C)noc4C)ccc3n2CCN2CCOCC2)cc1 [PF CBP1]
- 53BP1 DA vs. concentration regression (53BP1 recruitment) (WPMY-1 cells): strong activity
